# Data from US10414798B2, “Cancer stem cell targeting peptide and use thereof” (AGRICULTURAL TECHNOLOGY RESEARCH INSTITUTE, priority 2015, dated 2019).
# Entries after “also recorded” stand apart in the source; their conditions may differ.
# How the values were obtained:
# [1] = Glycan microarray analysis; type: binding; conditions: biotin-CSC HP, Cy3-streptavidin
# Procedure: (§1) N-terminus biotin conjugated CSC HPs with the sequences listed in Table A below were synthesized by GeneDirex with purities higher than 95%. Biotin-CSC HPs were dissolved in DMSO to prepare 10 mg/mL stocks.
# Glycan Array 100 microchips (Cat. # GA-Glycan-100) were purchased from RayBiotech and were processed following the manufacturer's instruction with some modifications. Briefly, after blocking with 400 μL Sample Diluent (Item E) at room temperature for 30 minutes, the biotin conjugated CSC HPs were diluted to 1 μg/400 μL with Sample Diluent, and hybridization reactions were carried out at room temperature for 2 hours. After washing, 400 μL of 1×Cy3-conjugated streptavidin was added to each well. The incubation chamber was covered with the plastic adhesive strips and the slide was covered with aluminum foil to avoid exposure to light during incubating in a dark room. The slide was incubated with Cy3-conjugated streptavidin at room temperature for 1 hour with gentle rocking or shaking. After thorough washing, the slide was drained completely, and the fluorescent signals on it were read by laser scanner Axon GenePix. The relative intensity on glycan X was defined as (average of X−negative control)/(positive control−negative control)×100%.
# The CSC HPs developed could distinguish CSCs from CCs, and this phenomenon was found cross-species between human and mouse. It was very interesting to figure out the targets of these CSC HPs. There were no detectable fluorescent signals of FITC-CSC HPs remaining on the nitrocellulose membrane that had been blotted with CSC membrane proteins separated by SDS PAGE (data not shown). Glycan microarray (Glycan Array 100 microchips), on which 100 kinds of oligosaccharides were spotted 4 times, was utilized to analyze the possibilities of the interactions between oligosaccharides and CSC HPs. Biotin-CSC HPs as listed in Table 2 were hybridized with glycans on chips. The biotin-CSC HPs trapped on the chips were explored with Cy3-conjugated streptavidin, and the fluorescent signals on it were read by a laser scanner. Two major patterns were illustrated in FIGS. 3A-3F. The first one included glycan 16 (Gal-β-1,4-Glc-β-), 18 (Gal-α-1,4-Gal-β-1,4-Glc-β-), and 26 (GalNAc-β-1,3-Gal-α-1,4-Gal-β-1,4-Glc-β-) Globo series (FIG. 3A). Typical cases were CSC HP-1 and CHC HP-hP1 (FIG. 3C). […] The typical cases were CSC HP5, CSC HP6, CSC HP7, and CSC HP9 (FIG. 3C). Two malignancy and metastasis glycan markers, glycan 63 (Fuc-α-1,2-Gal-β-1,4-(Fuc-α-1,3)-GlcNAc-β-, also called Lewis Y epitope) and glycan 69 (Neu5Ac-α-2,6-Gal-β-1,3-(Neu5Ac-α-2,6)-GalNAc-β-), were also detected. […] Both of the two Neu5Ac-α-2,6-residues were necessary for CSC HPs binding (FIG. 3E).
# PANC-1 CSCs = assay: Staining of tumorospheres with rhodamine B or fluorescein labeled CSC HPs; type: binding, human; conditions: N-terminal rhodamine B or fluorescein conjugate, fluorescence
# Procedure: [The procedure below names another cell line; the source lists this cell line under the same test.] (§2) 20 μg/mL of Rhodamine B labeled CSC HP1 (Rd-CSC HP-1) and CSC HP2 (Rd-CSC HP-2) as well as FITC labeled CSC HP11 (FITC-CSC HP-11) were directly used to stain EMT6 CSCs and CCs. Cells were counter-stained with DAPI.
# (§3) According to the results above, CSC HP-1, CSC HP-2, CSC HP-3, CSC HP-8, CSC HP-9, CSC HP-10, and CSC HP-11 were selected and chemically synthesized with N-terminal conjugation with rhodamine B or fluorescein. […] It was of interest to determine whether these CSC HPs derived from mouse cancers could recognize human CSCs.
# EMT6 CSCs = assay: Staining of CSCs with rhodamine B or fluorescein labeled CSC HPs; type: binding, mouse; conditions: N-terminal rhodamine B or fluorescein conjugate, fluorescence
# Procedure: as §2, §3
# CT26 CSCs [2] = assay: as above; type: binding, mouse; conditions: N-terminal rhodamine B or fluorescein conjugate, fluorescence
# Procedure: [The procedure below names another cell line; the source lists this cell line under the same test.] as §2, §3
# Hepa1-6 CSCs [3] = assay: as above; type: binding, mouse; conditions: N-terminal rhodamine B or fluorescein conjugate, fluorescence
# Procedure: [The procedure below names another cell line; the source lists this cell line under the same test.] as §2, §3
# CT26 CSCs [4] = assay: M13 phage display selection, secondary CT26 CSC HP-library; type: binding, mouse; conditions: from Table 1
# Procedure: (§4) The M13 PhD-7 library (NEB, E8100) which contains 10^9 independent clones was purchased from New England Biolabs Inc. 10^13 plaque firming units (pfus) of M13 PhD-7 phages in 10 mL DMEM were pre-adsorbed by cancer cells in a T75 flask twice, each for 1 hour. Subsequently, the supernatant was transferred to a T25 flask containing 5×10^6 CSCs and incubated for 1 hour. The unbound and weakly associated phages were removed by centrifugation and suspension three times in DMEM/0/2% BSA. The cell pellet was suspended in 1 mL PBS containing 10^9 E. coli ER2738 and incubated in a shaker for 1 hour. Then 10 mL LB/5 mM MgCl2 was added. After being cultured over-night at 37° C., the cells were removed by centrifugation and phages in the supernatant were titrated. The aforementioned selection procedures were carried out for three rounds for EMT6 and PANC-1 to obtain the primary EMT6 CSC homing peptide (HP)- and PANC-1 CSC HP-library, respectively. Subsequently, M13 plaques were picked up to prepare the DNA for sequencing. […]
# (§5) The primary CSC HP-library was selected directly once by either CT26 or Hepa1-6 CSCs to test the bias of CSC HP affinities to different kinds of cancers. […] Two new peptide sequences, KIYTTLD (CSC HP-9) (SEQ ID NO: 11) and NLQPPAY (CSC HP-12) (SEQ ID NO: 12), were read in the ESC unbound fraction (CSC HP-library) (Table 1).
# cancer cells (CCs) = assay: Parallel CC experiments with labeled CSC HPs; type: binding, mouse; conditions: N-terminal rhodamine B or fluorescein conjugate, fluorescence
# Procedure: as §2, §3
# Hepa1-6 CSCs [5] = assay: M13 phage display selection, secondary Hepa1-6 CSC HP-library; type: binding, mouse; conditions: from Table 1
# Procedure: as §4, §5
# [6] = Glycan microarray analysis, major signal pattern; type: binding; conditions: biotin-CSC HP, Cy3-streptavidin
# Procedure: as §1
# Glycan Array 100 microchips (Cat. # GA-Glycan-100) were purchased from RayBiotech and were processed following the manufacturer's instruction with some modifications. Briefly, after blocking with 400 μL Sample Diluent (Item E) at room temperature for 30 minutes, the biotin conjugated CSC HPs were diluted to 1 μg/400 μL with Sample Diluent, and hybridization reactions were carried out at room temperature for 2 hours. After washing, 400 μL of 1×Cy3-conjugated streptavidin was added to each well. […] After thorough washing, the slide was drained completely, and the fluorescent signals on it were read by laser scanner Axon GenePix. […]
# The CSC HPs developed could distinguish CSCs from CCs, and this phenomenon was found cross-species between human and mouse. […] The biotin-CSC HPs trapped on the chips were explored with Cy3-conjugated streptavidin, and the fluorescent signals on it were read by a laser scanner. […] Two malignancy and metastasis glycan markers, glycan 63 (Fuc-α-1,2-Gal-β-1,4-(Fuc-α-1,3)-GlcNAc-β-, also called Lewis Y epitope) and glycan 69 (Neu5Ac-α-2,6-Gal-β-1,3-(Neu5Ac-α-2,6)-GalNAc-β-), were also detected. […]
# [7] = system: mouse embryonic stem cell (mESC); assay: M13 phage display selection, secondary CSC/ESC HP-library (ESC bound fraction); type: binding
# Procedure: as §4, §5
Substance,binding to glycan 19 [1],binding to glycan 26 [1],association with PANC-1 tumorospheres (PANC-1 CSCs),association with EMT6 CSCs (EMT6 CSCs),association with CT26 CSCs (CT26 CSCs [2]),association with Hepa1-6 CSCs (Hepa1-6 CSCs [3]),detection in parallel CC experiments (cancer cells (CCs)),signal on glycan 69 [1],other results
"GLAPFNA (Cancer Stem Cell Targeting Peptide) [CSC HP-11, synthetic peptide that targets cancer stem cells]",,,definitely associated,specifically associated,specifically associated,specifically associated,not detectable,higher signals,
"GMMSSPP (Cancer Stem Cell Targeting Peptide) [CSC HP-2, synthetic peptide that targets cancer stem cells]",,,definitely associated,specifically associated,specifically associated,specifically associated,not detectable,,
"GPSASRN (Cancer Stem Cell Targeting Peptide) [CSC HP-10, synthetic peptide that targets cancer stem cells]",,,definitely associated,specifically associated,specifically associated,specifically associated,not detectable,higher signals,
"GSPVMSW (Cancer Stem Cell Targeting Peptide) [CSC HP-hP2, synthetic peptide that targets cancer stem cells]",,,,,,,,higher signals,
"SQPTWMF (Cancer Stem Cell Targeting Peptide) [CSC HP-1, synthetic peptide that targets cancer stem cells]",,bound strongly and specifically,definitely associated,specifically associated,specifically associated,specifically associated,not detectable,,major pattern of glycan microarray signals [6]: Globo series; binding / signal on glycan 63 [1]: higher signals; also recorded: bound more strongly; enrichment in the ESC bound fraction [7]: further enriched
"YHQVKPH (Cancer Stem Cell Targeting Peptide) [CSC HP-hP3, synthetic peptide that targets cancer stem cells]",,,,,,,,higher signals,

# Continued, in another order:
binding to glycan 19 [1],binding to glycan 26 [1],Substance,association with PANC-1 tumorospheres (PANC-1 CSCs),association with EMT6 CSCs (EMT6 CSCs),association with CT26 CSCs (CT26 CSCs [2]),association with Hepa1-6 CSCs (Hepa1-6 CSCs [3]),detection in parallel CC experiments (cancer cells (CCs)),signal on glycan 69 [1],other results
bound strongly,,"ATYGNLW (Cancer Stem Cell Targeting Peptide) [CSC HP-5, synthetic peptide that targets cancer stem cells]",,,,,,,
,weakly bound,"ELTPLTL (Cancer Stem Cell Targeting Peptide) [CSC HP-8, synthetic peptide that targets cancer stem cells]",definitely associated,specifically associated,specifically associated,specifically associated,not detectable,,bias of CSC HP affinity to CT26 CSCs (CT26 CSCs [4]): more specific
,weakly bound,"FSGGGNH (Cancer Stem Cell Targeting Peptide) [CSC HP-3, synthetic peptide that targets cancer stem cells]",definitely associated,specifically associated,specifically associated,specifically associated,not detectable,,bias of CSC HP affinity to Hepa1-6 CSCs (Hepa1-6 CSCs [5]): more specific
,bound strongly and specifically,"GPKVTIW (Cancer Stem Cell Targeting Peptide) [CSC HP-hP1, synthetic peptide that targets cancer stem cells]",,,,,,,major pattern of glycan microarray signals [6]: Globo series; binding / signal on glycan 63 [1]: higher signals; also recorded: bound more strongly
bound strongly,,"HGGVRLY (Cancer Stem Cell Targeting Peptide) [CSC HP-7, synthetic peptide that targets cancer stem cells]",,,,,,,
bound strongly,,"KIYTTLD (Cancer Stem Cell Targeting Peptide) [CSC HP-9, synthetic peptide that targets cancer stem cells]",definitely associated,specifically associated,specifically associated,specifically associated,not detectable,higher signals,
bound strongly,,"YHMPALM (Cancer Stem Cell Targeting Peptide) [CSC HP-6, synthetic peptide that targets cancer stem cells]",,,,,,,
